Source: patent EP0397914A1 (priority 1989, dated 1990)
Where “and” joins values, the source holds several entries; their conditions need not be identical. Equal entries are not always repeated.

Legend:
[1] = Acute toxicity (LD50) in mice; conditions: mouse, in vivo, ip; intraperitoneal injection, male ICR mice (6 weeks old), after one week; read-out: LD₅₀
Description: Epigallocatechin gallate was orally administered to male ICR mice (6 weeks old). LD₅₀ of them after one week was 2314 mg/kg. In another case, epigallocatechin gallate was administered to male ICR mice (6 weeks old) by intraperitoneal injection. LD₅₀ of them after one week was 150 mg/kg.

[2] = target: S toxin of A type toxins produced by Clostridium botulinum (Clostridium botulinum, UniProt P0DPI0); conditions: in vivo, iv
[3] = target: M toxin of A type toxins produced by Clostridium botulinum (Clostridium botulinum, UniProt P0DPI0); conditions: in vivo, iv

O=C(O[C@@H]1Cc2c(O)cc(O)cc2O[C@@H]1c1cc(O)c(O)c(O)c1)c1cc(O)c(O)c(O)c1 [epigallocatechin gallate, (-) epigallocatechin gallate]
LD50 at 168 h [1]: 150 mg/kg

O=c1c(O)cc([C@H]2Oc3cc(O)cc(O)c3C[C@H]2O)cc2c([C@H]3Oc4cc(O)cc(O)c4C[C@H]3O)cc(O)c(O)c12 [free theaflavin]
Remaining toxic activity (%) [2]: 4.4% and 6.1%
Remaining toxic activity (%) [3]: 9.9% and 7.6%
